Columns and labels:
patients with WD = system: patients with WD
Text: Example 1 was an open-label multicenter single-arm phase 2 trial conducted in 28 adults with a diagnosis of WD established by a Leipzig score of ≥4.
Data were collected from the first 72 weeks of the extension period for the following parameters: (a) NCC levels, corrected for bound copper contained in tetrathiomolybdate-copper-albumin complexes (NCCcorrected); (b) Liver status, measured using standard laboratory measures and also by Model for End-Stage Liver Disease (MELD) score (based on bilirubin, creatinine and international normalized ratio [INR]); (c) Patient-reported disability using Unified Wilson Disease Rating Scale (UWDRS) part II, and neurological status using UWDRS part III; and (d) Safety is shown below.

[1] = system: patients with Wilson disease
Experimental: Changes in neurological status were characterized using the Unified Wilson's Disease Rating Scale (UWDRS).
Patients were excluded if they had decompensated hepatic cirrhosis, a model for end-stage liver disease (MELD) score >11, or a modified Nazer score (revised King's score)>6.
The 24-week, phase 2, open-label study was conducted in Europe and the USA. […] Thereafter, dosing was tailored according to laboratory (including NCC concentrations adjusted for plasma molybdenum) and clinical assessments (maximum daily dose administered: 120 mg).
Disability and neurological status were assessed using parts II and III, respectively, of the UWDRS at baseline and weeks 4, 8, 12, 18, and 24: Disability (part II): 10-item patient-reported questionnaire (range for total scores: 0-40; higher scores indicate greater disability). Neurological status (part III): 23-item clinician-assessed score (range for total scores: 0-143; higher scores indicate worse neurological status). Data (total scores for UWDRS parts II and III, and AEs) are summarized briefly for context in Results.
UWDRS neurological status scores at baseline, week 24, and change from baseline to week 24 were calculated for: any individual item experienced by at least 50% of patients; and for item groups (i.e. collections of individual items that could be considered to represent particular patient phenotypes [Table 11]).
Least-squares mean (standard error [SE], 95% confidence intervals [CIs]) values were calculated for changes from baseline for UWDRS total scores using a mixed-model repeated-measures analysis; significance was assessed using two-sided p values. To investigate and quantify the relationship between UWDRS total scores for parts II and III, a random coefficients analysis was conducted using each patient's scores from all study visits. Summary statistics were calculated for other outcomes.

[2] = of 22 patients, baseline to week 24

C[N+](C)(C)CCO.C[N+](C)(C)CCO.[SH-].[SH-].[S]=[Mo]=[S] [WTX101, bis-choline tetrathiomolybdate]
Relationship to the study drug as deemed by the investigator: Acute lower back pain (week 37) (patients with WD; SAE after week 24): Unrelated | Relationship to the study drug as deemed by the investigator: Dizziness (week 113) (patients with WD; SAE after week 24): Possible | Relationship to the study drug as deemed by the investigator: Loss of consciousness (week 113) (patients with WD; SAE after week 24): Possible | Relationship to the study drug as deemed by the investigator: Mania (week 38) (patients with WD; SAE after week 24): Unlikely | Relationship to the study drug as deemed by the investigator: Neutropenia (week 36) (patients with WD; SAE after week 24): Possible | Relationship to the study drug as deemed by the investigator: Exacerbation of WD (week 46) (patients with WD; SAE after week 24, likely due to disease progression): Possible | SAE Acute lower back pain (week 37), number of patients (patients with WD; after week 24): 1 | SAE Dizziness (week 113), number of patients (patients with WD; after week 24): 1 | SAE Exacerbation of WD (week 46), number of patients (patients with WD; after week 24): 1 | SAE Loss of consciousness (week 113), number of patients (patients with WD; after week 24): 1 | SAE Mania (week 38), number of patients (patients with WD; after week 24): 1 | number of patients with ≥1 SAEs (patients with WD; after week 24): 5 patients | number of serious adverse events (patients with WD; after week 24): 6 events in | SAE Neutropenia (week 36), number of patients (patients with WD; after week 24, grade 1, normalized with dose reduction): 1 | INR, mean ± standard error (patients with WD; beginning of extension period (week 24), N=22): 1.06 ± 0.0 | NCCcorrected, mean ± standard error (patients with WD; beginning of extension period (week 24), N=22, baseline 3.6 ± 0.4): 0.9 ± 0.2 µM | UWDRS part II score, mean ± standard error (patients with WD; beginning of extension period (week 24), N=22, baseline 6.6 ± 1.9): 4.1 ± 1.8 | MELD score, mean ± standard error (patients with WD; beginning of extension period (week 24), N=22, baseline 7.7 ± 0.4): 7.2 ± 0.4 | UWDRS part III score, mean ± standard error (patients with WD; beginning of extension period (week 24), N=22, baseline 22.8 ± 4.0): 16.6 ± 3.9 | Albumin, mean ± standard error (patients with WD; beginning of extension period (week 24), N=22, baseline 39.2 ± 1.0): 40.9 ± 0.7 g/L | ALT, mean ± standard error (patients with WD; beginning of extension period (week 24), N=22, baseline 42.6 ± 6.2): 36.8 ± 3.9 U/L | AEs considered unrelated or unlikely related to therapy (patients with WD; between week 24 and 72): 89% | AEs mild or moderate (patients with WD; between week 24 and 72): 89% | mean INR, albumin, ALT levels and MELD score (liver function) (patients with WD; between week 24 and week 72): improved or unchanged | reversible ALT elevations requiring dose adjustments (patients with WD; extension period): not observed | hemoglobin measurements below the normal range (patients with WD; over the follow-up period): 5.2% | patients with low hemoglobin at some point (patients with WD; over the follow-up period, none below 100 g/L): 7 patients | mean UWDRS disability score and neurological signs score (patients with WD; week 24 to 72): continued improvements | subjects with neutropenia accompanied by mild anemia and low NCC levels (patients with WD; week 36 and 72, responded to dose reduction): Two | decrease in number of reported AEs and SAEs (patients with WD; weeks 1-24 to weeks 25-72): around 50% | individuals with deterioration in dystonia item group score ([1]; baseline to week 24): three | individuals with deterioration in gait item group score ([1]; baseline to week 24): six | individuals with deterioration in rigidity item group score ([1]; baseline to week 24): four | mean improvement in UWDRS part III item group total tremor ([1]; baseline to week 24, SD 61.7): 34.2% | mean improvement in UWDRS part III item group limb agility (dexterity) and coordination ([1]; baseline to week 24, SD 72.2): 29.2% | overall deterioration in UWDRS part III item group gait ([1]; baseline to week 24, SD 77.8): 4.2% | overall deterioration in UWDRS part III item group dystonia ([1]; baseline to week 24, SD 135.2): 15.0% | overall deterioration in UWDRS part III item group rigidity ([1]; baseline to week 24, SD 169.6): 26.9% | patients with any deterioration in limb agility and coordination item group score [1, 2]: three | patients with any deterioration in tremor item group score [1, 2]: four | mean improvement (% change) in UWDRS part III item alternating hand movements ([1]; over 24 weeks): 35.0% | mean improvement (% change) in UWDRS part III item handwriting ([1]; over 24 weeks): 51.4% | mean improvement (% change) in UWDRS part III item leg agility ([1]; over 24 weeks): 40.8% | mean improvement (% change) in UWDRS part III item postural arm tremor ([1]; over 24 weeks): 39.5%

Source: US12233088B2 (Alexion Pharmaceuticals, Inc., priority 2017, dated 2025)
